ChEMBL document CHEMBL1201862, “PubChem BioAssay data set” (2004)
Each block holds one compound with its values, some of them ahead of it. Active and inactive are the calls of the source.

Columns and labels:
HeLa = test: viability loss in HeLa cells – cell-based, ATP luminescence, cherry-pick samples, cytotoxicity control, dose response (AID 687004); assay type: functional; conditions: Homo sapiens
[1] = P. falciparum Dd2 growth inhibitors, dose response, SYBR Green, cherry-picked samples (AID 1159567); assay type: functional, cell-based
[2] = toxicity to human HepG2 hepatoma cells – cell-based, plate reader, dry powder samples, cytotoxicity control, dose response (AID 1159569); assay type: functional;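 further: inhibitor potency with signal falling toward the positive control level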
[3] = Dd2 malaria parasite growth inhibition potency – SYBR Green, dry powder samples, dose response (AID 1159566); assay type: functional, cell-based;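 further: potency for growth inhibition with lower SYBR green DNA signal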
[4] = growth inhibition of yeast DHODH-expressing 3D7 parasites – SYBR Green, dry powder samples, dose response (AID 1159570); assay type: functional, cell-based;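 further: parasite growth measured after 72 hours of compound exposure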
[5] = growth inhibition of PfATP4-mutant resistant parasites – NITD609-resistant line, SYBR Green, dry powder, dose response (AID 1159571); assay type: functional, cell-based;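 further: parasites synchronized at ring stage by sorbitol before testing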
[6] = reduced cellular PGC1a acetyl-lysine signal – cell-based, cherry-picked samples, dose response (AID 720514); assay type: functional;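 further: potency may reflect raised or lowered acetylation signal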
[7] = molecular target: T1, Trace amine-associated receptor 1 (Homo sapiens, UniProt Q96RJ0); test: Counterscreen for agonists of the human trace amine associated receptor 1 (hTAAR1): Fluorescence-based cell-based high throughput dose response assay to identify hTAAR1 agonist that also desensitize TAAR1 receptor response.; assay type: functional
T1 sequence (Q96RJ0 whole entry): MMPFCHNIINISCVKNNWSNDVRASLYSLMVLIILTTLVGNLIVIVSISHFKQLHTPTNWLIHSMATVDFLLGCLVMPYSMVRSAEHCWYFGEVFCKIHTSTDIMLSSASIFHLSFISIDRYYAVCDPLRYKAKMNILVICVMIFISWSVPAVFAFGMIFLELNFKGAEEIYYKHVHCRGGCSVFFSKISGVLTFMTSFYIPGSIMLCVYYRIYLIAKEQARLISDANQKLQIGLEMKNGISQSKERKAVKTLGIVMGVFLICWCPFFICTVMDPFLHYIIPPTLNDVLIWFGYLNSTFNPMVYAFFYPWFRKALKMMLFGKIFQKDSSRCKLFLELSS

cells [8] = assay type: functional, cell-based
[9] = molecular target: T1, Trace amine-associated receptor 1; test: Fluorescence-based cell-based high throughput dose response assay to identify agonists of the human trace amine associated receptor 1 (TAAR1).; assay type: functional
cells [10] = assay type: functional, cell-based; remark: listed apart in the source
Albumin = Albumin (Bos taurus, UniProt P02769); test: Counterscreen for inhibitors of T-cell receptor (TCR)-CD3 interaction: Fluorescence-based biochemical high throughput dose response assay to identify inhibitors of T-cell receptor (TCR)-CD3 interaction using a TAMRA-labeled BSA probe.; assay type: functional
[11] = reduction of Shn3 3'UTR-driven luciferase in osteoblasts – cell-based, Clone20 osteoblasts, firefly luciferase, cherry-picked, dose response (AID 624132); assay type: functional;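 further: firefly luciferase luminescence from reporter carrying the Shn3 3'UTR in osteoblasts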
[12] = viability of HCT116 lacking mutant beta-catenin – cell-based, human colon tumor, dose response (AID 1045); assay type: functional;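 further: HCT116 colon tumor cells with beta catenin knocked out; cells exposed to compound for 60 hours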
[13] = viability of PTEN-deleted HCT116 cells – cell-based, HCT116 PTEN knockout, dose response (AID 1047); assay type: functional;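 further: HCT116 colon tumor cells with PTEN knocked out; cells exposed to compound for 60 hours before readout; potency for loss of cell viability measured by luminescence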
Protein Wnt-3a = Protein Wnt-3a (Mus musculus, UniProt P27467); test: antagonism of Wnt3a pathway luciferase reporter – Wnt-LIGHT cells, luminescence, selectivity assay for Gli-SUFU antagonist project, dose response (AID 651570); assay type: functional; conditions: read-out: IC50_Mean;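 further: Wnt-LIGHT reporter cells stimulated with conditioned medium from Wnt3a-producing cells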
[14] = non-specific 3'UTR reporter inhibition in Clone20-Shn3RL – cell-based, Renilla luciferase, cherry-picked, counter-screen for Shn3 inhibitor project, dose response (AID 624133); assay type: functional
[15] = loss of viability in HepG2 cells – cell-based, CellTiter-Glo, cherry-picked, cytotoxicity control for Shn3 inhibitor project, dose response (AID 624134); assay type: functional
[16] = molecular target: T2, COUP transcription factor 2 (Homo sapiens, UniProt P24468); test: Luminescence-based cell-based high throughput dose response assay to identify inhibitors of COUP-TFII (NR2F2).; assay type: functional;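 further: HEK293 cells transiently cotransfected with COUP-TFII expression vector and reporter; luciferase reporter luminescence driven by COUP-TFII from the pX2-168 reporter plasmid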
T2 sequence (P24468 whole entry): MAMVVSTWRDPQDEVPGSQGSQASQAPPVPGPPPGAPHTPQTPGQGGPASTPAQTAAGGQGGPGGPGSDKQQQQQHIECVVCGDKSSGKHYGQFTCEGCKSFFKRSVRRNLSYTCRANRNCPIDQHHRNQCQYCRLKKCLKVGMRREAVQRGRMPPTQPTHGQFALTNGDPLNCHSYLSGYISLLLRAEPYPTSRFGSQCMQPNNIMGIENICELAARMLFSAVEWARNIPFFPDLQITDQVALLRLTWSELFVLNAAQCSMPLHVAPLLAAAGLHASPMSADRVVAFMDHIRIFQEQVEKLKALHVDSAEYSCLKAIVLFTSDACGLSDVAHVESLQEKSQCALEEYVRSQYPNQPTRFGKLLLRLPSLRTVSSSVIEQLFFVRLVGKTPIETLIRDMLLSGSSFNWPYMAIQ

[17] = toxicity to human hepatoma HepG2 cells – cell-based, cherry-picked samples, cytotoxicity control, dose response (AID 1159577); assay type: functional
Cytochrome P450 3A4 = Cytochrome P450 3A4 (Homo sapiens, UniProt P08684);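 further: CYP3A4 tested as one member of a cytochrome P450 panel screen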
fMet-Leu-Phe receptor = molecular target: T3, fMet-Leu-Phe receptor (Homo sapiens, UniProt P21462); test: formyl peptide receptor binders – dose response (AID 519); assay type: functional
T3 sequence (P21462 whole entry): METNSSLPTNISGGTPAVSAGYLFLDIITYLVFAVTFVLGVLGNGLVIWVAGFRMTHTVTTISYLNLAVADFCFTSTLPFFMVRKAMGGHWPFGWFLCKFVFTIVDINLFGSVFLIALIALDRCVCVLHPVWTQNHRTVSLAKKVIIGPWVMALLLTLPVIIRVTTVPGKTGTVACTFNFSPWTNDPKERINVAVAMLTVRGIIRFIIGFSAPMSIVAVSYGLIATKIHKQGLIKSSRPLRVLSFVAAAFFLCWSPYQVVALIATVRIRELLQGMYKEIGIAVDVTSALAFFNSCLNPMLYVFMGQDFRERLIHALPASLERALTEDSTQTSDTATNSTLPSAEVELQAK

Cytochrome P450 2C9 = Cytochrome P450 2C9 (Homo sapiens, UniProt P11712)
Cytochrome P450 2C19 = Cytochrome P450 2C19 (Homo sapiens, UniProt P33261); test: Cytochrome panel assay with activity outcomes. Panel member name: p450-cyp2c19 Compounds with AC50 equal or less than 10 uM are considered active; assay type: functional; conditions: read-out: AC50
Sequence of Cytochrome P450 2C19 (P33261 whole entry): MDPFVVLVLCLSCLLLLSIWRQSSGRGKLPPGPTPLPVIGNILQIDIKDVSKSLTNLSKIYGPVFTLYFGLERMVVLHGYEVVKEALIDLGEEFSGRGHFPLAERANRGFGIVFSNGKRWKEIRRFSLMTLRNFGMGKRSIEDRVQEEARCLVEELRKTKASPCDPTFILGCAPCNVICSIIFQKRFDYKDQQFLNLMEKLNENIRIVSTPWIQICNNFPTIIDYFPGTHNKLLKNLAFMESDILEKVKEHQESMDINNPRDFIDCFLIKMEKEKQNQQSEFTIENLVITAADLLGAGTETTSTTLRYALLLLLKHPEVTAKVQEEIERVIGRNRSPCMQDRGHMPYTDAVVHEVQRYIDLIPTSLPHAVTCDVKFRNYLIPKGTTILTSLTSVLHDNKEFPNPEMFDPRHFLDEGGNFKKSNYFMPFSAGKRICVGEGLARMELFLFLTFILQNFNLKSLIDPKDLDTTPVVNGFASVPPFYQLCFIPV

Sequence of Protein Wnt-3a (P27467 whole entry): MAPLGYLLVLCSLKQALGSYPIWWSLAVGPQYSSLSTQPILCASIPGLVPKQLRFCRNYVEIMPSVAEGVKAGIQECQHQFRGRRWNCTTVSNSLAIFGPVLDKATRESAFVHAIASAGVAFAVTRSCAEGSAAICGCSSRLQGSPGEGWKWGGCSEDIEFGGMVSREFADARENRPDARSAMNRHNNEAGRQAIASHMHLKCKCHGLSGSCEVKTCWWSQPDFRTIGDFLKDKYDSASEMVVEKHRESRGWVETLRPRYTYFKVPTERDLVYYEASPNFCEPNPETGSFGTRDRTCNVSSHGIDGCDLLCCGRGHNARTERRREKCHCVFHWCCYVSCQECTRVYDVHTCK
Sequence of Cytochrome P450 3A4 (P08684 whole entry): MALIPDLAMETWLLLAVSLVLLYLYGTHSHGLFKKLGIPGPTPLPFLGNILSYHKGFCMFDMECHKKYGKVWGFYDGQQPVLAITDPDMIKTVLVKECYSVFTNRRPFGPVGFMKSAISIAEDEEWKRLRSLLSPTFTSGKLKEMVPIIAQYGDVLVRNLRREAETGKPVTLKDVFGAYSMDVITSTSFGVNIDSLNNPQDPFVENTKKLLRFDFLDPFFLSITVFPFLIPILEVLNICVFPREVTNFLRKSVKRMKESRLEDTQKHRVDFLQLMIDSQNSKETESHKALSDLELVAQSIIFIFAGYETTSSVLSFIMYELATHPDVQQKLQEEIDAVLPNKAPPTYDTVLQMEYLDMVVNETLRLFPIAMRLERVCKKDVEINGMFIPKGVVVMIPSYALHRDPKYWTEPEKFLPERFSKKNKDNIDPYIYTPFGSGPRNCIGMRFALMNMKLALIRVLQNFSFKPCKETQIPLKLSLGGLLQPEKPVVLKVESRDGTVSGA
Sequence of Albumin (P02769 whole entry): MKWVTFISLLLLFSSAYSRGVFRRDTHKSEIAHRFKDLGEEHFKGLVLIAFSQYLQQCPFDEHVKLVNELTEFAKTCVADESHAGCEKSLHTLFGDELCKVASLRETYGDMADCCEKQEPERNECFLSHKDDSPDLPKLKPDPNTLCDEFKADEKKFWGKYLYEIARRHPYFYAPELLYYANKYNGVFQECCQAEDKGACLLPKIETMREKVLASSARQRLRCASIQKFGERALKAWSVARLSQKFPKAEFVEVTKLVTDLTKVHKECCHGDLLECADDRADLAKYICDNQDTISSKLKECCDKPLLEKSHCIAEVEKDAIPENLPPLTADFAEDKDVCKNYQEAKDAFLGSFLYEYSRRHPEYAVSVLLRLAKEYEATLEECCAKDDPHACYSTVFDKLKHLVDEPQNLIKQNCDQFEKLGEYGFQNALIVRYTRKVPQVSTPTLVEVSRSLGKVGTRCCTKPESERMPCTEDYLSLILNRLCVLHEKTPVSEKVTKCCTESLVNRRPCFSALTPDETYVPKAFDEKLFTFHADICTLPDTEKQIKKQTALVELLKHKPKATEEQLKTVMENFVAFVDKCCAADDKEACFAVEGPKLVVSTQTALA
Sequence of Cytochrome P450 2C9 (P11712 whole entry): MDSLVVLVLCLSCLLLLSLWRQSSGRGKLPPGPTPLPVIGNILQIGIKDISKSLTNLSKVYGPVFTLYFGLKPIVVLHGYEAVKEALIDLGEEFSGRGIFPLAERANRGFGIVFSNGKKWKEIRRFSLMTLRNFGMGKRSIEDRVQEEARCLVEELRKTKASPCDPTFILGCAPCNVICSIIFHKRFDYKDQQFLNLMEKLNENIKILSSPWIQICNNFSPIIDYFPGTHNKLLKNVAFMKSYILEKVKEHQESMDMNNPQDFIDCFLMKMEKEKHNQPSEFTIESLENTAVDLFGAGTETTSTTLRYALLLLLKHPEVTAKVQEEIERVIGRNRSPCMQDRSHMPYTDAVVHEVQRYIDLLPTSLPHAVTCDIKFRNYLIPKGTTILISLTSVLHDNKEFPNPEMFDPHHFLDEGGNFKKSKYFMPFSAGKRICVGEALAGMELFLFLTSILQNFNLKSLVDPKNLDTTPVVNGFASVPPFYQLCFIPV

SMILES: CCCNC(=O)C[C@@H]1CC[C@@H]2[C@H](COc3ccc(NC(=O)CCC)cc3C(=O)N2C)O1
AC50 (HeLa): 9.9 µM (active)

SMILES: COc1ccc2c3c([nH]c2c1)[C@H](CO)N(C(=O)Nc1ccc(F)cc1)CC31CCN(S(=O)(=O)c2cccc(F)c2)CC1
AC50 [1]: 0.883 µM (active) | AC50 [2]: 22 µM (active) | AC50 [3]: 0.751 µM (active) | AC50 [4]: 1.22 µM (active) | AC50 [5]: 0.103 µM (active)

SMILES: C[C@H]1CN([C@@H](C)CO)C(=O)c2cccc(NC(=O)Nc3ccc(C(F)(F)F)cc3)c2O[C@H]1CN(C)C(=O)Nc1cccc2ccccc12
AC50 [6]: 8.85 µM (active)

SMILES: Cc1nnc(SCC(=O)NCCC2=CCCCC2)nc1O
IC50 [7]: 7.22 µM (active) | EC50 (cells [8]): > 29.9 µM (inactive) | EC50 [9]: 1.25 µM (active) | IC50 (cells [10]): > 29.9 µM (inactive)

IC50 (Albumin): > 94.1 µM (inactive)
SMILES: O=C(CNC(=O)c1ccccc1F)NNC(=O)c1ccccc1O

SMILES: Cc1cccc(S(=O)(=O)N(C)C[C@@H]2OCc3cn(nn3)CCCC(=O)N([C@@H](C)CO)C[C@H]2C)c1
AC50 [6]: 34.4 µM (active)

SMILES: CCCCOC(=O)c1[nH]c2c(c1C)C(=O)CC(c1cc(OC)c(OC)c(OC)c1)C2 (stereo not drawn)
AC50 [11]: 1.35 µM (active) | EC50 [12]: 58.8 µM (active) | EC50 [13]: 79.5 µM (active) | IC50 (Protein Wnt-3a): 8.48 µM (active) | AC50 [14]: 3.74 µM (active) | AC50 [15]: 62 µM (active) | IC50 [16]: 7.91 µM (active)

SMILES: OC[C@@H]1[C@H](c2ccc(C3=CCCC3)cc2)[C@H]2CN(CCC(F)(F)F)CCCCN12
AC50 [1]: 1.2 µM (active) | AC50 [17]: 18.7 µM (active)

AC50 (Cytochrome P450 3A4): 20 µM (inconclusive) | Ki (fMet-Leu-Phe receptor): 20.5 µM (inactive) | AC50 (Cytochrome P450 2C9): inconclusive | AC50 (Cytochrome P450 2C19): 3.16 µM (inconclusive)
SMILES: CCOc1ccccc1Oc1c(C)oc2cc(OC(=O)c3ccco3)ccc2c1=O

SMILES: COc1ccc(C#Cc2ccc3c(c2)[C@H]2[C@H](CCN2Cc2ccncc2)[C@@H](CO)N3)cc1
AC50 [1]: 2.38 µM (active) | AC50 [2]: 62.5 µM (active) | AC50 [3]: 1.16 µM (active) | AC50 [4]: 1.95 µM (active) | AC50 [5]: 1.67 µM (active)

SMILES: C[C@H]1CN([C@@H](C)CO)C(=O)c2c(c3ccccc3n2C)-c2ccccc2CO[C@@H]1CN(C)Cc1cccc2c1OCCCO2
AC50 [1]: 4.74 µM (active) | AC50 [17]: 29.8 µM (active)
